Assay results reported in patent publication US10988523B2, “Modified lipidated Relaxin B chain peptides and their therapeutic use” (Sanofi, priority 2018, dated 2021).
*1 amine or outer side, *2 acyl side, *3 side chain or, on linkers, in order; H or OH if unused. Where a SMILES comes first, the peptide text is derived from it. Side-chain parts run from the residue outwards. [ ]: non-standard residue; d: D form. The star is where a group is joined. γGlu = O=C(O)[C@H](CCC(=O)[*:2])N[*:1]; 1Nal = N[C@@H](Cc1cccc2ccccc12)C(=O)O; Stearoyl = CCCCCCCCCCCCCCCCCC(=O)*; Nle = CCCC[C@H](N)C(=O)O; AEEA = NCCOCCOCC(=O)O; Aib = CC(C)(N)C(=O)O

Biological target: T1, RXFP1 (Homo sapiens, UniProt Q9HBX9)
T1 construct: OVCAR5 cells expressing endogenous RXFP1; endogenous in cells; host or cells: OVCAR5 cells
T1 sequence (Q9HBX9 1-757): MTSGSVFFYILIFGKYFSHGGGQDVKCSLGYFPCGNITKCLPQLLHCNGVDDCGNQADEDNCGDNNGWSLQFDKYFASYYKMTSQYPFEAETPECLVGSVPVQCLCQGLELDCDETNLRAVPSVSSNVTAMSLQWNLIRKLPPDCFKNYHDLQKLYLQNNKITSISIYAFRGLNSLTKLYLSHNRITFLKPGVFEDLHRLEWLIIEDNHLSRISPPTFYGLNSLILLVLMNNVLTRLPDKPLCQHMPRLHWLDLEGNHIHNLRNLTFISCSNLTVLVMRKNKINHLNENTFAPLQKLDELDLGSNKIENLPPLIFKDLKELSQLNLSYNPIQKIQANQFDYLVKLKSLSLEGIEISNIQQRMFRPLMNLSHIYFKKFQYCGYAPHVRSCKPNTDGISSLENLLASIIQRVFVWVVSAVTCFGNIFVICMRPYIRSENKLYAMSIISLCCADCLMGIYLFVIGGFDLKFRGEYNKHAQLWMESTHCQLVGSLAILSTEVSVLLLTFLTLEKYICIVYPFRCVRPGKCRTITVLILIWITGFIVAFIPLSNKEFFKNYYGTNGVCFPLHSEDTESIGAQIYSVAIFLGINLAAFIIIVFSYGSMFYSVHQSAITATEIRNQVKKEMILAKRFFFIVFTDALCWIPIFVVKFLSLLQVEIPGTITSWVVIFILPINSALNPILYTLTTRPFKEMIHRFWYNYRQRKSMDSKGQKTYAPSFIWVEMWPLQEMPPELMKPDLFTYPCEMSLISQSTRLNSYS
Experiment: OVCAR5 cAMP assay (HTRF), RXFP1 agonist activity
Type: cell-based
Conditions: for EC50: OVCAR5 cells, cAMP HTRF, read-out: EC50 (nM), OVCAR 5 cells (cAMP); for Emax: OVCAR-5, maximal cAMP relative to H2-relaxin maximum (100%), read-out: EMax, OVCAR 5 cells (cAMP)
Method in brief: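 OVCAR5 cells (endogenous RXFP1) pretreated 40 min at 37° C with 1 mM IBMX, then exposed to peptides in serum-free medium for 30 min at 37° C. Lysate cAMP read by HTRF; EC50 from variable-slope sigmoidal fit; Emax as % of H2-relaxin maximal cAMP in same run.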

| EC50 [nM] | Emax [%] | Structure (SMILES) |
| --- | --- | --- |
| 1.04 | 73 | CCCCCCCCCCCCCCCCCC(=O)N[C@@H](CCC(=O)N[C@@H](CCC(=O)N[C@@H](CCC(=O)NCCOCCOCC(=O)NCCOCCOCC(=O)NCCOCCOCC(=O)NCCCC[C@H](NC(=O)[C@H](CCCCNC(C)=O)NC(=O)[C@H](CCCCN)NC(=O)[C@H](CCCNC(=N)N)NC(=O)C(C)(C)NC(=O)[C@H](CO)NC(=O)[C@H](Cc1ccc(O)cc1)NC(=O)[C@@H](NC(=O)[C@H](CO)NC(=O)[C@H](CCCC)NC(=O)CNC(=O)[C@H](CCC(=O)O)NC(=O)C(C)(C)NC(=O)C(C)(C)NC(=O)[C@@H](NC(=O)[C@H](CCCCNC(C)=O)NC(=O)[C@H](C)NC(=O)[C@H](CCCNC(=N)N)NC(=O)[C@@H](NC(=O)[C@H](CCCCN)NC(=O)[C@H](CCC(=O)O)NC(=O)[C@H](CCCNC(=N)N)NC(=O)CNC(=O)[C@H](CCC(=O)O)NC(=O)[C@H](CC(C)C)NC(C)=O)C(C)C)[C@@H](C)CC)[C@@H](C)O)C(N)=O)C(=O)O)C(=O)O)C(=O)O [compound 78] (Ac-LEGREKVRAK(Ac)I[Aib][Aib]EG[Nle]STYS[Aib]RKK(Ac)K([AEEA-AEEA-AEEA-γGlu-γGlu-γGlu-Stearoyl])-NH2) |
| 0.4 | 75 | CCCCCCCCCCCCCCCCCC(=O)N[C@@H](CCC(=O)N[C@@H](CCC(=O)N[C@@H](CCC(=O)NCCOCCOCC(=O)NCCOCCOCC(=O)NCCOCCOCC(=O)NCCCC[C@H](NC(=O)[C@H](CCCCN)NC(=O)[C@H](CCCNC(=N)N)NC(=O)C(C)(C)NC(=O)[C@H](CO)NC(=O)[C@H](Cc1cccc2ccccc12)NC(=O)[C@@H](NC(=O)[C@H](CO)NC(=O)[C@H](CCCC)NC(=O)CNC(=O)[C@H](CCC(=O)O)NC(=O)C(C)(C)NC(=O)C(C)(C)NC(=O)[C@@H](NC(=O)[C@H](CCCCNC(C)=O)NC(=O)[C@H](C)NC(=O)[C@H](CCCNC(=N)N)NC(=O)[C@@H](NC(=O)[C@H](CCCCN)NC(=O)[C@H](CCC(=O)O)NC(=O)[C@H](CCCNC(=N)N)NC(=O)CNC(=O)[C@H](CCC(=O)O)NC(=O)[C@H](CC(C)C)NC(C)=O)C(C)C)[C@@H](C)CC)[C@@H](C)O)C(N)=O)C(=O)O)C(=O)O)C(=O)O [compound 79] (Ac-LEGREKVRAK(Ac)I[Aib][Aib]EG[Nle]ST[1Nal]S[Aib]RKK([AEEA-AEEA-AEEA-γGlu-γGlu-γGlu-Stearoyl])-NH2) |
| – | 68 | CCCCCCCCCCCCCCCCCC(=O)N[C@@H](CCC(=O)N[C@@H](CCC(=O)N[C@@H](CCC(=O)NCCOCCOCC(=O)NCCOCCOCC(=O)NCCOCCOCC(=O)NCCCC[C@H](NC(=O)[C@H](CCCCN)NC(=O)[C@H](CCCNC(=N)N)NC(=O)C(C)(C)NC(=O)[C@H](CO)NC(=O)[C@H](Cc1cccc2ccccc12)NC(=O)[C@@H](NC(=O)[C@H](CO)NC(=O)[C@H](CCCC)NC(=O)CNC(=O)[C@H](CCC(=O)O)NC(=O)C(C)(C)NC(=O)C(C)(C)NC(=O)[C@@H](NC(=O)[C@H](CCCCNC(C)=O)NC(=O)C(C)(C)NC(=O)[C@H](CCCNC(=N)N)NC(=O)[C@@H](NC(=O)[C@H](CCCCN)NC(=O)[C@H](CCC(=O)O)NC(=O)[C@H](CCCNC(=N)N)NC(=O)CNC(=O)[C@H](CCC(=O)O)NC(=O)[C@H](CC(C)C)NC(C)=O)C(C)C)[C@@H](C)CC)[C@@H](C)O)C(N)=O)C(=O)O)C(=O)O)C(=O)O [compound 80] (Ac-LEGREKVR[Aib]K(Ac)I[Aib][Aib]EG[Nle]ST[1Nal]S[Aib]RKK([AEEA-AEEA-AEEA-γGlu-γGlu-γGlu-Stearoyl])-NH2) |
| – | 92 | CCCCCCCCCCCCCCCCCC(=O)N[C@@H](CCC(=O)N[C@@H](CCC(=O)N[C@@H](CCC(=O)NCCOCCOCC(=O)NCCOCCOCC(=O)NCCOCCOCC(=O)NCCCC[C@H](NC(=O)[C@H](CCCCN)NC(=O)[C@H](CCCNC(=N)N)NC(=O)C(C)(C)NC(=O)[C@H](CO)NC(=O)[C@H](Cc1c[nH]c2ccccc12)NC(=O)[C@@H](NC(=O)[C@H](CO)NC(=O)[C@H](CCCC)NC(=O)CNC(=O)[C@H](CCC(=O)O)NC(=O)C(C)(C)NC(=O)C(C)(C)NC(=O)[C@@H](NC(=O)[C@H](CCCCNC(C)=O)NC(=O)[C@H](C)NC(=O)[C@H](CCCNC(=N)N)NC(=O)[C@@H](NC(=O)[C@H](CCCCN)NC(=O)[C@H](CCC(=O)O)NC(=O)[C@H](CCCNC(=N)N)NC(=O)CNC(=O)[C@H](CCC(=O)O)NC(=O)[C@H](CC(C)C)NC(C)=O)C(C)C)[C@@H](C)CC)[C@@H](C)O)C(N)=O)C(=O)O)C(=O)O)C(=O)O [compound 83] (Ac-LEGREKVRAK(Ac)I[Aib][Aib]EG[Nle]STWS[Aib]RKK([AEEA-AEEA-AEEA-γGlu-γGlu-γGlu-Stearoyl])-NH2) |
| 0.09 | 76 | CCCCCCCCCCCCCCCCCC(=O)N[C@@H](CCC(=O)N[C@@H](CCC(=O)N[C@@H](CCC(=O)NCCOCCOCC(=O)NCCOCCOCC(=O)NCCOCCOCC(=O)NCCCC[C@H](NC(=O)[C@H](CCCCNC(C)=O)NC(=O)[C@H](CCCCN)NC(=O)[C@H](CCCNC(=N)N)NC(=O)C(C)(C)NC(=O)[C@H](CO)NC(=O)[C@H](Cc1cccc2ccccc12)NC(=O)[C@@H](NC(=O)[C@H](CO)NC(=O)[C@H](CCCC)NC(=O)CNC(=O)[C@H](CCC(=O)O)NC(=O)C(C)(C)NC(=O)C(C)(C)NC(=O)[C@@H](NC(=O)[C@H](CCCCNC(C)=O)NC(=O)[C@H](C)NC(=O)[C@H](CCCNC(=N)N)NC(=O)[C@@H](NC(=O)[C@H](CCCCN)NC(=O)[C@H](CCC(=O)O)NC(=O)[C@H](CCCNC(=N)N)NC(=O)CNC(=O)[C@H](CCC(=O)O)NC(=O)[C@H](CC(C)C)NC(C)=O)C(C)C)[C@@H](C)CC)[C@@H](C)O)C(N)=O)C(=O)O)C(=O)O)C(=O)O [compound 84] (Ac-LEGREKVRAK(Ac)I[Aib][Aib]EG[Nle]ST[1Nal]S[Aib]RKK(Ac)K([AEEA-AEEA-AEEA-γGlu-γGlu-γGlu-Stearoyl])-NH2) |
| – | 75 | CCCCCCCCCCCCCCCCCC(=O)N[C@@H](CCC(=O)N[C@@H](CCC(=O)N[C@@H](CCC(=O)NCCOCCOCC(=O)NCCOCCOCC(=O)NCCOCCOCC(=O)NCCCC[C@H](NC(=O)[C@H](CCCCNC(C)=O)NC(=O)[C@H](CCCCN)NC(=O)[C@H](CCCNC(=N)N)NC(=O)C(C)(C)NC(=O)[C@H](CO)NC(=O)[C@H](Cc1cccc2ccccc12)NC(=O)[C@@H](NC(=O)[C@H](CO)NC(=O)[C@H](CCCC)NC(=O)CNC(=O)[C@H](CCC(=O)O)NC(=O)C(C)(C)NC(=O)C(C)(C)NC(=O)[C@@H](NC(=O)[C@H](CCCCNC(C)=O)NC(=O)C(C)(C)NC(=O)[C@H](CCCNC(=N)N)NC(=O)[C@@H](NC(=O)[C@H](CCCCN)NC(=O)[C@H](CCC(=O)O)NC(=O)[C@H](CCCNC(=N)N)NC(=O)CNC(=O)[C@H](CCC(=O)O)NC(=O)[C@H](CC(C)C)NC(C)=O)C(C)C)[C@@H](C)CC)[C@@H](C)O)C(N)=O)C(=O)O)C(=O)O)C(=O)O [compound 85] (Ac-LEGREKVR[Aib]K(Ac)I[Aib][Aib]EG[Nle]ST[1Nal]S[Aib]RKK(Ac)K([AEEA-AEEA-AEEA-γGlu-γGlu-γGlu-Stearoyl])-NH2) |
